{"source": "patent US11407748B2", "about": "“Substituted pyrido[1,2-a]pyrimidines and pyrazino[1,2-a]pyrimidines for enhancing AMPA receptor function” (Takeda Pharmaceutical Company Limited, priority 2017, dated 2022)"}
{"biological_target": "T1, hGluR1 flip (Homo sapiens, UniProt P42261)", "T1 construct": "expressed in transfected cells; host or cells: CHO-K1", "T1 sequence (P42261 19-906 isoform P42261-2 limits assumed)": "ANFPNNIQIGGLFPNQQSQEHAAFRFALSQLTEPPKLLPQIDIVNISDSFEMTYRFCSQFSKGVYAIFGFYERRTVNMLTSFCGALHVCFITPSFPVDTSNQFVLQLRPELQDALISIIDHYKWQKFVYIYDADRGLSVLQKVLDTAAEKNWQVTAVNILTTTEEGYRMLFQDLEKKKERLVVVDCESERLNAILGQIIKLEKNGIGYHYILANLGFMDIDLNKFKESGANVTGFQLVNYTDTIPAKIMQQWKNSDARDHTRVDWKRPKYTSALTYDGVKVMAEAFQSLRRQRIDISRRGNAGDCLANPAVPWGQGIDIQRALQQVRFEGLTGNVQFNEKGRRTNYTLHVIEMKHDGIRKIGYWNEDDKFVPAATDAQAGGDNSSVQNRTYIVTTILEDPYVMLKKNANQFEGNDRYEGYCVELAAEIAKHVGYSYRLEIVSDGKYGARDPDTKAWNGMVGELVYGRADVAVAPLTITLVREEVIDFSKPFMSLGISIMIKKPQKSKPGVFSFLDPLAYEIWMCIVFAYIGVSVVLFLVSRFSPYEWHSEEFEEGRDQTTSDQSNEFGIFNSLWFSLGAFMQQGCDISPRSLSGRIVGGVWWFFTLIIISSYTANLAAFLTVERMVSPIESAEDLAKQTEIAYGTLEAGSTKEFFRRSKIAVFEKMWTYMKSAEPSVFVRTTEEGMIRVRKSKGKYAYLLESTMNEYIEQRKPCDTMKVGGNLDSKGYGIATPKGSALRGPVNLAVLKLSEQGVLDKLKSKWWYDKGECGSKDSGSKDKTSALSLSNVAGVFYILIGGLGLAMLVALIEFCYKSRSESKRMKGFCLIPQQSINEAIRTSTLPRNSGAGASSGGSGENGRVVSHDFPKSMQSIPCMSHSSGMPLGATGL", "T1 sequence (Q9Y698 whole entry partner)": "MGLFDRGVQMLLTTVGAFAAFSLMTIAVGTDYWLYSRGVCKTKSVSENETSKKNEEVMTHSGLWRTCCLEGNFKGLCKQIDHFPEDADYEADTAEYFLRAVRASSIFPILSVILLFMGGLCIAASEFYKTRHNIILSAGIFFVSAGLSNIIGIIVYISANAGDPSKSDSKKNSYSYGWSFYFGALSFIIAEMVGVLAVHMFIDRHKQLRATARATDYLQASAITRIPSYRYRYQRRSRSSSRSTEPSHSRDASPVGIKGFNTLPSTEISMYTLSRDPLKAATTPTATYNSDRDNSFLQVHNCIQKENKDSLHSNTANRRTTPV", "test": "AMPA receptor function-enhancing activity using calcium influx as index", "assay_type": "cell-based", "details": "test compound 30 μM with 3 mM glutamic acid; CHO-K1/GluR1 flip/stargazin-expressing cells; 100% = 3 mM glutamic acid + 300 μM cyclothiazide, 0% = 3 mM glutamic acid alone", "source_text": "Experimental Example 1 Measurement Method of AMPA Receptor Function-Enhancing Activity of Compound Using Calcium Influx as Index\n(1) Construction of Expression Gene\nHuman GluR^1 flip cDNA was amplified by PCR method using forward primer […] (SEQ ID NO: 1) and reverse primer […] (SEQ ID NO: 2) artificially synthesized using human brain-derived cDNA (BD Bioscience) as a template. The amplified product was digested with restriction enzymes EcoRI, NotI (TAKARA SHUZO CO. LTD.) and incorporated into the same site of pcDNA3.1 (+) (Invitrogen) to construct pcDNA3.1(+)/human GluR1 flip gene. Human stargazin cDNA was amplified by PCR method using forward primer […] (SEQ ID NO: 3) and reverse primer […] (SEQ ID NO: 4) artificially synthesized using human hippocampus cDNA as a template. The amplified product was digested with restriction enzymes XhoI, BamHI (TAKARA SHUZO CO. LTD.) and incorporated into the same site of pcDNA3.1(−) (Invitrogen) to construct pcDNA3.1 Zeo(−)/human stargazing gene.\n(2) Construction of GluR1 Flip/Stargazin Expressing Cell\nCHO-K1 cells passaged in a culture medium (Ham's F12 medium (Invitrogen) added with 10% inactivated fetal bovine serum (Morgate) and penicillin, streptomycin (Invitrogen)) were detached using 0.05% trypsin and 0.53 mM EDTA (Invitrogen) diluted with D-PBS(−). The detached cells were suspended in a culture medium, and recovered by centrifugation at 1,000 rpm. The recovered cells were re-suspended in D-PBS(−) and added into 0.4 cm electroporation cuvette (BioRad). pcDNA3.1(+)/human GluR1 flip gene (5 μg) and pcDNA3.1 Zeo(−)/human stargazin gene (15 μg) were added, and introduced into CHO-K1 cells under the conditions of 950 μFd, […] and using Gene Pulser II (BioRad). The introduced cells were cultured overnight in a culture medium. The next day, using a selection medium (culture medium added with zeocin (Invitrogen) at 250 μg/mL), the cells were plated in a 96 well plate at 250 cells/well. The clones showing drug resistance were selected, and GluR1 flip/stargazin expression clones were selected by an assay method shown below using calcium influx as an index.\n(3) Measurement Method of AMPA Receptor Function-Enhancing Activity of Compound, Using Calcium Influx as an Index\nCHO-K1/GluR1 flip/stargazin-expressing cells were plated on a 384 well black bottom transparent plate, and cultured for 2 days in a CO2 incubator (SANYO ELECTRIC Co. Ltd.) at 37° C. The medium of the cell plate was removed. A calcium indicator (Calcium5 Assay Kit, Molecular Devices) was diluted with an assay buffer (HESS (Thermo Fisher Scientific), 0.1% BSA (Merck Millipoer) and 10 mM HEPES (Thermo Fisher Scientific)), and 1.25 mM probenecid (Dojindo Laboratories) was added thereto. The mixture prepared above was added at 30 μL/well (100 μL/well in case of 96 wells) to the well, and the well was left standing in 37° C., CO2 incubator for 1 hr. The cell plate was set in CellLux (PerkinElmer), a mixture (15 μL) (50 μL/well in case of 96 wells) of 9 mM glutamic acid (final concentration 3 mM) diluted with an assay buffer and a test compound (test compound concentration 30 μM) was added thereto, and variation in the amount of fluorescence was measured for 3 min. The variation of fluorescence level of a well added with final concentration 3 mM of glutamic acid and 300 μM cyclothiazide (TOCRIS) was defined as 100%, the variation of fluorescence level of a well added with final concentration 3 mM of glutamic acid alone was defined as 0%, and the activity of the compound was calculated by the following formula. activity (%)=(X−C)/(T−C)×100 • T: variation of fluorescence level of well added with final concentration 3 mM of glutamic acid and 300 μM cyclothiazide • C: variation of fluorescence level of well added with final concentration 3 mM of glutamic acid alone • X: variation of fluorescence level of well added with test compound", "units": {"activation at 30 µM": "%", "hGluR1 flip/30 μM (%)": "%"}}
{"smiles": "O=C(NCC1CC1)c1ccc(-c2cccn3c(=O)c(Br)c(C(F)(F)F)nc23)cc1F", "note": "[Example 70, 4-(3-bromo-4-oxo-2-(trifluoromethyl)-4H-pyrido[1,2-a]pyrimidin-9-yl)-N-(cyclopropylmethyl)-2-fluorobenzamide]", "activation at 30 µM": 71.4}
{"smiles": "CN(CC1CC1)C(=O)c1ccc(-c2cccn3c(=O)c(Br)c(C(F)(F)F)nc23)cc1F", "note": "[Example 96, 4-(3-bromo-4-oxo-2-(trifluoromethyl)-4H-pyrido[1,2-a]pyrimidin-9-yl)-N-(cyclopropylmethyl)-2-fluoro-N-methylbenzamide]", "activation at 30 µM": 97.2}
{"smiles": "Cc1c(C(F)(F)F)nc2c(-c3ccc(C(=O)N[C@H]4CCCOC4)cc3)cccn2c1=O", "note": "[Example 93, 4-(3-methyl-4-oxo-2-(trifluoromethyl)-4H-pyrido[1,2-a]pyrimidin-9-yl)-N-((3S)-tetrahydro-2H-pyran-3-yl)benzamide]", "activation at 30 µM": 88.2}
{"smiles": "O=C(c1ccc(-c2cccn3c(=O)c(Cl)c(C(F)(F)F)nc23)cc1)N1CCOCC1", "note": "[Example 17, 3-chloro-9-(4-(morpholin-4-ylcarbonyl)phenyl)-2-(trifluoromethyl)-4H-pyrido[1,2-a]pyrimidin-4-one]", "activation at 30 µM": 95.2}
{"smiles": "COC1CCN(C(=O)c2ccc(-c3cccn4c(=O)c(Br)c(C(F)(F)F)nc34)cc2F)CC1", "note": "[Example 88, 3-bromo-9-(3-fluoro-4-((4-methoxypiperidin-1-yl)carbonyl)phenyl)-2-(trifluoromethyl)-4H-pyrido[1,2-a]pyrimidin-4-one]", "activation at 30 µM": 90.3}
{"smiles": "Cc1c(C(F)(F)F)nc2c(-c3ccc(C(=O)N4CCCOCC4)cc3)cccn2c1=O", "note": "[Example 69, 3-methyl-9-(4-(1,4-oxazepan-4-ylcarbonyl)phenyl)-2-(trifluoromethyl)-4H-pyrido[1,2-a]pyrimidin-4-one]", "activation at 30 µM": 79.9}
{"smiles": "Cc1c(C(F)(F)F)nc2c(-c3ccc(C(=O)N(C)CCC#N)cc3)cccn2c1=O", "note": "[Example 100, N-(2-cyanoethyl)-N-methyl-4-(3-methyl-4-oxo-2-(trifluoromethyl)-4H-pyrido[1,2-a]pyrimidin-9-yl)benzamide]", "activation at 30 µM": 89.2}
{"smiles": "O=C(N[C@H]1CCCOC1)c1ccc(-c2cccn3c(=O)c(Br)c(C(F)(F)F)nc23)cc1F", "note": "[Example 110, 4-(3-bromo-4-oxo-2-(trifluoromethyl)-4H-pyrido[1,2-a]pyrimidin-9-yl)-2-fluoro-N-((3S)-tetrahydro-2H-pyran-3-yl)benzamide]", "activation at 30 µM": 86.8}
{"smiles": "O=C(N[C@H]1CCCOC1)c1ccc(-c2cccn3c(=O)c(Cl)c(C(F)(F)F)nc23)cc1", "note": "[Example 132, 4-(3-chloro-4-oxo-2-(trifluoromethyl)-4H-pyrido[1,2-a]pyrimidin-9-yl)-N-((3S)-tetrahydro-2H-pyran-3-yl)benzamide]", "activation at 30 µM": 106}
{"smiles": "O=C(c1ccc(-c2cccn3c(=O)c(Br)c(C(F)(F)F)nc23)cc1)N1CCOC2CC21", "note": "(stereo not shown) [Example 128, 3-bromo-9-(4-(2-oxa-5 azabicyclo[4.1.0]hept-5-ylcarbonyl)phenyl)-2-(trifluoromethyl)-4H-pyrido[1,2-a]pyrimidin-4-one]", "hGluR1 flip/30 μM (%)": 70.9}
{"smiles": "N#CC1CCN(C(=O)c2ccc(-c3cccn4c(=O)c(Br)c(C(F)(F)F)nc34)cc2)C1", "note": "(stereo not shown) [Example 120, 1-(4-(3-bromo-4-oxo-2-(trifluoromethyl)-4H-pyrido[1,2-a]pyrimidin-9-yl)benzoyl)pyrrolidine-3-carbonitrile]", "activation at 30 µM": 71.5}
{"smiles": "O=C(N[C@H]1CCCOC1)c1ccc(-c2cccn3c(=O)cc(C(F)(F)F)nc23)cc1", "note": "[Example 122, 4-(4-oxo-2-(trifluoromethyl)-4H-pyrido[1,2-a]pyrimidin-9-yl)-N-((3S)-tetrahydro-2H-pyran-3-yl)benzamide]", "activation at 30 µM": 71.4}
{"smiles": "O=C(c1ccc(-c2cccn3c(=O)c(Br)c(C(F)(F)F)nc23)cc1)N1CCOC(F)(F)C1", "note": "[Example 19, 3-bromo-9-(4-((2,2-difluoromorpholin-4-yl)carbonyl)phenyl)-2-(trifluoromethyl)-4H-pyrido[1,2-a]pyrimidin-4-one]", "activation at 30 µM": 79.4}
